These results are taken from patent US20080103158A1, “METHODS FOR TREATING DELAYING THE PROGRESSION OF ALZHEIMER'S DISEASE WITH HETEROCYCLIC COMPOUNDS” (ZENYAKU KOGYO KABUSHIKI KAISHA, priority 2006, published 2008).

The subject of data set [1] is amyloid β deposition in the hippocampus. The data set can be described thus: Amyloid β deposition inhibitory activity: amyloid β immunohistochemistry of the hippocampus in senescene accelerated mice (SAMP8). In kind it is in vivo. Here is the method:
Senescene accelerated mice (SAMP8) (male, 8 months old at the beginning of the study) were used for experiment. Approximately 0.1 mg/kg/day of Compound 1 was given in drinking water. Eight weeks after the dosing, the mouse brain was removed, Methacarn-fixed (methanol:chloroform:acetic acid=6:3:1), and paraffin-embedded. Then, sections of 8 μm in thickness were prepared using a microtome.
The sections were immunostained with streptavidin-biotin using a VECTASTATIN ABC kit. After one hour of incubation in 10% normal goat serum, the anti-amyloid β (Aβ) antibody was diluted with PBS to ten fold and incubated at 4° C. overnight. The following day, PBS rinsing, 1.5 hours of incubation with biotinylated anti-rabbit secondary antibody, PBS rinsing, and 1.5 hours of incubation with peroxidase-labeled streptavidin were conducted. The immunoreaction was visualized with DAB and specimens were prepared.
Immunoreactive Aβ-like granules in the hippocampus were counted under the microscope. The Aβ-like immunoreactive granule was observed as brown deposits in the hippocampus. The count was made for one section per individual.

Data set [2] can be described thus: preclinical study (safety).

`O=C1N=C2C=CC=CN2C12Cc1ccccc1C2` [Compound 1, spiro[imidazo[1,2-a]pyridin-2(3H)-one-3,2′-indan]]: in data set [1] (hippocampus immunohistochemistry), the “amyloid β deposition (overall conclusion)” value is listed as “inhibits amyloid β deposition”. Besides, the “number of amyloid β-immunoreactive granules” value in data set [1] (hippocampus, one section per individual, oral 0.002, 0.01 and 0.1 mg/kg in drinking water for 2 months, FIG. 2) is on record as “significantly (*) decreased”. The “amyloid β-like immunoreactivity in the hippocampus” value in data set [1] (male, 8 months old, Compound 1 in drinking water at oral dosage of 0.002, 0.01 and 0.1 mg/kg/day for 2 months, vs tap water) is reported as “reduced”. Besides, in data set [2], the “safety in the preclinical study” value is reported as “highly safe”.

One may read the melting point as the temperature, or range, at which the solid turns liquid. Turning to `O=C1N=C2C(NCc3ccccc3)=CC=CN2C1(Cc1ccccc1)Cc1ccccc1` [Compound 37, 3,3-dibenzyl-8-benzylaminoimidazo[1,2-a]pyridin-2(3H)-one], the melting point stood at 250 °C.

`NC1=CC=CN2C1=NC(=O)C2(Cc1ccccc1)Cc1ccccc1` [Compound 39, 8-amino-3,3-dibenzylimidazo[1,2-a]pyridin-2(3H)-one]: the melting point was 283 to 285 °C.

Consider `COC(=O)c1ccc(CC2(Cc3ccc(C(=O)OC)cc3)C(=O)N=C3C=CC=CN32)cc1` [Compound 40, 3,3-bis(4-methoxycarbonylbenzyl)imidazo[1,2-a]pyridin-2(3H)-one], for which the melting point is 289 to 290 °C.

Turning to `O=C1N=C2SC=CN2C1(Cc1ccccc1)Cc1ccccc1` [Compound 44, 5,5-dibenzylimidazo[2,1-b]thiazol-6(5H)-one], the melting point was more than 300 °C.

`O=C1N=C2N=CC=CN2C1(Cc1ccccc1)Cc1ccccc1` [Compound 45, 3,3-dibenzylimidazo[1,2-a]pyrimidin-2(3H)-one] had a melting point of more than 300 °C.

Regarding `Cc1ccc(CC2(Cc3ccc(C)cc3)C(=O)N=C3SC=CN32)cc1` [Compound 46, 5,5-bis(4-methylbenzyl)imidazo[2,1-b]thiazol-6(5H)-one], the melting point was more than 300 °C.

The molecule `N#Cc1ccc(CC2(Cc3ccc(C#N)cc3)C(=O)N=C3SC=CN32)cc1` [Compound 47, 5,5-bis(4-cyanobenzyl)imidazo[2,1-b]thiazol-6(5H)-one] gave a melting point of 264 to 267 °C.

With `CC1=CN2C(=NC(=O)C2(Cc2ccccc2)Cc2ccccc2)S1` [Compound 48, 5,5-dibenzyl-2-methylimidazo[2,1-b]thiazol-6(5H)-one], the melting point was more than 300 °C.

Regarding `O=C1N=C2SC=CN2C1(Cc1cccs1)Cc1cccs1` [Compound 49, 5,5-bis(2-thienylmethyl)imidazo[2,1-b]thiazol-6(5H)-one], the melting point is 286 °C (dec.).

With `O=C1N=C2N=CC=CN2C1(Cc1cccs1)Cc1cccs1` [Compound 50, 3,3-bis(2-thienylmethyl)imidazo[1,2-a]pyrimidin-2(3H)-one], the melting point is 192 °C (dec.).

`O=C1N=C2SCCN2C1(Cc1ccccc1)Cc1ccccc1` [Compound 51, 5,5-dibenzyl-2,3-dihydroimidazo[2,1-b]thiazol-6(5H)-one] had a melting point of 233 to 236 °C.

`Oc1nc2ccccn2c1Cc1ccc2ccccc2c1` [Compound 52, 2-hydroxy-3-(2-naphthylmethyl)imidazo[1,2-a]pyridine]: the melting point is 205 °C (dec.).

Turning to `O=C1N=C2C=CC=CN2C12Cc1cc3ccccc3cc1C2` [Compound 53, spiro[imidazo[1,2-a]pyridin-2(3H)-one-3,2′-benzo[f]indan]], the melting point was 214 °C (dec.).

For the molecule `O=C1N=C2C=CC=CN2C1Cc1ccccc1` (stereo not drawn) [Compound 54, 3-benzylimidazo[1,2-a]pyridin-2(3H)-one], the melting point was 182 °C (dec.).

Take `C/C=C/CC1(C/C=C/C)C(=O)N=C2N=CC=CN21` [Compound 55, 3,3-di(2-butenyl)imidazo[1,2-a]pyrimidin-2(3H)-one]: the melting point was 149.5 °C (dec.).

In the case of `O=C1N=C2C=CC=CN2C12Cc1cccc(F)c1C2` (stereo not drawn) [Compound 56, spiro[imidazo[1,2-a]pyridin-2(3H)-one-3,2′-(4′-fluoroindan)]], the melting point is 148 °C (dec.).

The molecule `COc1ccc2c(c1)CC1(C2)C(=O)N=C2C=CC=CN21` (stereo not drawn) [Compound 57, spiro[imidazo[1,2-a]pyridin-2(3H)-one-3,2′-(5′-methoxyindan)]] returned a melting point of 150 to 152 °C.

On to `O=C1N=C2C=CC=CN2C12Cc1ccc(I)cc1C2` (stereo not drawn) [Compound 58, spiro[imidazo[1,2-a]pyridin-2(3H)-one-3,2′-(5′-iodoindan)]], for which the melting point was in the range of 167 to 171 °C.

For the molecule `N#Cc1cccc2c1CC1(C2)C(=O)N=C2C=CC=CN21` (stereo not drawn) [Compound 59, spiro[imidazo[1,2-a]pyridin-2(3H)-one-3,2′-(4′-cyanoindan)]], the melting point was 247.7 °C (dec.).

`O=C1N=C2c3ccccc3C=CN2C12Cc1ccccc1C2` [Compound 60, spiro[imidazo[2,1-a]isoquinolin-2(3H)-one-3,2′-indan]] displayed a melting point of 201 to 203 °C.

As for `O=C1N=C2C=CC=CN2C12Cc1cc3nsnc3cc1C2` [Compound 61, spiro[imidazo[1,2-a]pyridin-2(3H)-one-3,2′-((1,2,5-thiadiazo)[4,5-c]indan)]], the melting point was 86 to 88 °C.

Take `O=C1N=C2c3ccccc3C=CN2C12Cc1cc3nsnc3cc1C2` [Compound 62, spiro[imidazo[2,1-a]isoquinolin-2(3H)-one-3,2′-((1,2,5-thiadiazo)[4,5-c]indan)]]: the melting point is 271.5 °C (dec.).

For the molecule `O=C1N=C2N=CC=CN2C12Cc1ccccc1C2` [Compound 63, spiro[imidazo[1,2-a]pyrimidin-2(3H)-one-3,2′-indan]], the melting point was 195.5 °C (dec.).

For the molecule `O=C1N=C2C=CC=CN2C12Cc1ccc(C(F)(F)F)cc1C2` (stereo not drawn) [Compound 64, spiro[imidazo[1,2-a]pyridin-2(3H)-one-3,2′-(5′-trifluoromethylindan)]], the melting point is 176.5 to 179.5 °C.

As for `O=C1N=C2C=CC=CN2C12Cc1ccc3ccccc3c1C2` (stereo not drawn) [Compound 65, spiro[imidazo[1,2-a]pyridin-2(3H)-one-3,2′-benzo[e]indan]], the melting point is 256 °C (dec.).

`O=C1N=C2C=CC=CN2C1(C1C=CCCC1)C1C=CCCC1` (stereo not drawn) [Compound 67, 3,3-bis(2-cyclohexenyl)imidazo[1,2-a]pyridin-2(3H)-one] registered a melting point of 245 to 247 °C.

Take `C=CCC1(CC=C)C(=O)N=C2c3ccccc3C=CN21` [Compound 68, 3,3-diallylimidazo[2,1-a]isoquinolin-2(3H)-one]: the melting point was 108 to 110 °C.

With `O=C1N=C2C(OCc3ccccc3)=CC=CN2C12CC=CC2` [Compound 70, spiro[8-benzyloxyimidazo[1,2-a]pyridin-2(3H)-one-3,4′-(1′-cyclopentene)]], the melting point was 178.5 to 180.5 °C.

The molecule `O=C1N=C2CCCCN2C1(C1CCCCC1)C1CCCCC1` [Compound 72, 3,3-dicyclohexyl-5,6,7,8-tetrahydroimidazo[1,2-a]pyridin-2(3H)-one] registered a melting point of 218 to 220 °C.

As to `CCCCC1(CCCC)C(=O)N=C2CCCCN21` [Compound 73, 3,3-dibutyl-5,6,7,8-tetrahydroimidazo[1,2-a]pyridin-2(3H)-one], the melting point was in the range of 35 to 40 °C.

With `O=C1N=C2C3=C(C=CN2C12CCCC2)CCCC3` [Compound 74, spiro[7,8,9,10-tetrahydroimidazo[2,1-a]isoquinolin-2(3H)-one-3,1′-cyclopentane]], the melting point was 270.5 °C (dec.).

`O=C1N=C2c3ccccc3C=CN2C12CCCC2` [Compound 75, spiro[imidazo[2,1-a]isoquinolin-2(3H)-one-3,1′-cyclopentane]] returned a melting point of 164.5 to 167.5 °C.

Take `O=C1N=C2CCCCN2C12Cc1cc3ccccc3cc1C2` [Compound 76, spiro[5,6,7,8-tetrahydroimidazo[1,2-a]pyridin-2(3H)-one-3,2′-benzo[f]indan]]: the melting point is 252.5 °C (dec.).

`O=C1N=C2CCCCN2C12Cc1ccccc1C2` [Compound 77, spiro[5,6,7,8-tetrahydroimidazo[1,2-a]pyridin-2(3H)-one-3,2′-indan]]: the melting point was 276.5 °C (dec.).

The molecule `O=C1N=C2C=CC=CN2C1(Cc1ccc(Cl)cc1)Cc1ccc(Cl)cc1` [Compound 78, 3,3-bis(4-chlorobenzyl)imidazo[1,2-a]pyridin-2(3H)-one] gave a melting point of 293 to 296 °C.

In the case of `C=CCC1(CC=C)C(=O)N=C2C(OCC3CC3)=CC=CN21` [Compound 79, 8-cyclopropylmethyloxy-3,3-diallylimidazo[1,2-a]pyridin-2(3H)-one], the melting point was in the range of 139 to 142 °C.

In turn, `COC1=CC=CN2C1=NC(=O)C21CC=CC1` [Compound 82, spiro[8-methoxyimidazo[1,2-a]pyridin-2(3H)-one-3,4′-(1′-cyclopentene)]] yielded a melting point of 200 to 202 °C.

In the case of `O=C1N=C2C(OCC3CC3)=CC=CN2C12CC=CC2` [Compound 83, spiro[8-cyclopropylmethyloxyimidazo[1,2-a]pyridin-2(3H)-one-3,4′-(1′-cyclopentene)]], the melting point fell in the range of 134 to 137 °C.
